Experimental data as given in ChEMBL document CHEMBL1201862, “PubChem BioAssay data set” (2004).
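Compound exposure: 48 hours, 5 concentrations, 96-well plates. Here, GI50 denotes the concentration required for 50% inhibition of growth.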 Active and inactive are the calls of the source. No stated cut-off is given here; in the data, active = GI50 up to about 1.1 µM and inactive = higher.

Experiments:
Assay in all cases: DTP human tumour cell line panel, 48 h
[1] = test system: A498
[2] = test system: ACHN
[3] = test system: EKVX
[4] = test system: HCT-15
[5] = test system: K562
[6] = test system: KM12
[7] = test system: M14
[8] = test system: MDA-MB-435
[9] = test system: NCI-H460
[10] = test system: NCI/ADR-RES
[11] = test system: OVCAR-3
[12] = test system: RXF 393
[13] = test system: SF-268
[14] = test system: SK-MEL-2
[15] = test system: SN12C
[16] = test system: SNB-75
[17] = test system: SR
[18] = test system: U-251
[19] = test system: DU-145
[20] = test system: NCI-H23

With Cc1cc(C(F)(F)F)cc(-n2nc(NS(=O)(=O)c3cc(C)c(Cl)cc3S)nc2N)n1 the GI50 [1] was 26 µM (inactive), the GI50 [2] was 53.3 µM (inactive) and the GI50 [3] was 55.6 µM (inactive). The GI50 [4] was 39.5 µM, the GI50 [5] was 39.7 µM (inactive) and the GI50 [6] was 42.9 µM (inactive). The GI50 [7] was 54.1 µM (inactive), the GI50 [8] was 41.4 µM (inactive) and the GI50 [9] was 24.4 µM (inactive). For the same compound, the GI50 [10] was 30.8 µM (inactive), the GI50 [11] was 51.3 µM (inactive) and the GI50 [12] was > 100 µM (inactive). For the same compound, the GI50 [13] was 92.9 µM (inactive), the GI50 [14] was 26.2 µM (inactive) and the GI50 [15] was 35.5 µM (inactive). The GI50 [16] was > 100 µM (inactive), the GI50 [17] was 23.4 µM (inactive) and the GI50 [18] was 42.2 µM (inactive).
In the case of COc1ccc(C2c3cc4c(cc3OC(N3CCCCC3)C2C)OCO4)cc1 (configuration not stated), the GI50 [2] was 41.2 µM (inactive), the GI50 [19] was > 100 µM (inactive) and the GI50 [3] was > 100 µM (inactive). For the same compound, the GI50 [4] was > 100 µM, the GI50 [5] was > 100 µM (inactive) and the GI50 [6] was > 100 µM (inactive). The GI50 [7] was > 100 µM (inactive), the GI50 [8] was 27 µM (inactive) and the GI50 [20] was 58.5 µM (inactive). For the same compound, the GI50 [9] was > 100 µM (inactive), the GI50 [10] was > 100 µM (inactive) and the GI50 [11] was > 100 µM (inactive). The GI50 [13] was > 100 µM (inactive), the GI50 [14] was > 100 µM (inactive) and the GI50 [15] was > 100 µM (inactive). The GI50 [16] was 35.6 µM (inactive) and the GI50 [17] was > 100 µM (inactive).
N#CCC(=O)Nc1cccc(C(F)(F)F)c1 was tested, and the GI50 [1] was > 100 µM (inactive), the GI50 [2] was > 100 µM (inactive) and the GI50 [3] was > 100 µM (inactive). The GI50 [4] was > 100 µM, the GI50 [5] was > 10 µM (inactive) and the GI50 [6] was > 100 µM (inactive). For the same compound, the GI50 [7] was > 100 µM (inactive), the GI50 [20] was > 100 µM (inactive) and the GI50 [9] was > 100 µM (inactive). The GI50 [11] was 84.3 µM (inactive), the GI50 [12] was > 100 µM (inactive) and the GI50 [13] was > 100 µM (inactive). For the same compound, the GI50 [14] was > 100 µM (inactive), the GI50 [15] was > 100 µM (inactive) and the GI50 [16] was > 100 µM (inactive). For the same compound, the GI50 [17] was > 100 µM (inactive) and the GI50 [18] was > 100 µM (inactive).
For CC(=O)C1=NN(c2ccccc2)C2(S1)SC(c1ccccc1)(c1ccccc1)c1ccccc12 (configuration not stated), the GI50 [1] was 89.7 µM (inactive), the GI50 [2] was 42.3 µM (inactive) and the GI50 [3] was > 100 µM (inactive). The GI50 [4] was > 100 µM, the GI50 [5] was 32.4 µM (inactive) and the GI50 [6] was 74.5 µM (inactive). The GI50 [7] was 44.8 µM (inactive), the GI50 [20] was 27.2 µM (inactive) and the GI50 [9] was 32.3 µM (inactive). The GI50 [11] was 51.3 µM (inactive), the GI50 [12] was 13.2 µM (inactive) and the GI50 [13] was 40.1 µM (inactive). For the same compound, the GI50 [14] was 27 µM (inactive), the GI50 [15] was > 100 µM (inactive) and the GI50 [16] was 19.3 µM (inactive). The GI50 [17] was 20.4 µM (inactive) and the GI50 [18] was 44.7 µM (inactive).
With CCCCCCCCCCCC(=O)OCCOCCOCCOCCOCCOCc1ccccc1 the GI50 [1] was > 100 µM (inactive), the GI50 [2] was > 100 µM (inactive) and the GI50 [3] was > 100 µM (inactive). The GI50 [4] was > 100 µM, the GI50 [5] was > 100 µM (inactive) and the GI50 [6] was > 100 µM (inactive). The GI50 [7] was > 100 µM (inactive), the GI50 [20] was > 100 µM (inactive) and the GI50 [9] was > 100 µM (inactive). For the same compound, the GI50 [11] was > 100 µM (inactive), the GI50 [12] was > 100 µM (inactive) and the GI50 [13] was > 100 µM (inactive). The GI50 [14] was > 100 µM (inactive), the GI50 [15] was > 100 µM (inactive) and the GI50 [16] was > 100 µM (inactive). For the same compound, the GI50 [17] was > 100 µM (inactive) and the GI50 [18] was > 100 µM (inactive).
With [N-]=[N+]=C(C(=O)C(=[N+]=[N-])C(=O)c1ccccc1)C(=O)c1ccccc1 the GI50 [2] was > 100 µM (inactive), the GI50 [19] was > 100 µM (inactive) and the GI50 [3] was > 100 µM (inactive). For the same compound, the GI50 [4] was > 100 µM, the GI50 [5] was > 100 µM (inactive) and the GI50 [6] was 44.2 µM (inactive). For the same compound, the GI50 [7] was > 100 µM (inactive), the GI50 [8] was > 100 µM (inactive) and the GI50 [20] was > 100 µM (inactive). The GI50 [9] was > 100 µM (inactive), the GI50 [10] was > 100 µM (inactive) and the GI50 [11] was > 100 µM (inactive). The GI50 [12] was > 100 µM (inactive), the GI50 [13] was > 100 µM (inactive) and the GI50 [14] was > 100 µM (inactive). The GI50 [15] was > 100 µM (inactive) and the GI50 [16] was > 100 µM (inactive).
Cc1ccc(NC(=O)C(=O)Cc2cccc[n+]2[O-])cc1C was tested, and the GI50 [1] was > 100 µM (inactive), the GI50 [2] was > 100 µM (inactive) and the GI50 [3] was > 100 µM (inactive). The GI50 [4] was > 100 µM, the GI50 [5] was > 100 µM (inactive) and the GI50 [6] was > 100 µM (inactive). The GI50 [7] was > 100 µM (inactive), the GI50 [20] was > 100 µM (inactive) and the GI50 [9] was > 100 µM (inactive). For the same compound, the GI50 [11] was > 100 µM (inactive), the GI50 [12] was > 100 µM (inactive) and the GI50 [13] was > 100 µM (inactive). For the same compound, the GI50 [14] was > 100 µM (inactive), the GI50 [15] was > 100 µM (inactive) and the GI50 [16] was > 100 µM (inactive). The GI50 [17] was > 100 µM (inactive) and the GI50 [18] was > 100 µM (inactive).
Cc1ccc(NC(=O)CCCC(=O)CC(=O)c2ccc(Br)cc2)cc1 was tested, and the GI50 [1] was > 100 µM (inactive), the GI50 [2] was > 100 µM (inactive) and the GI50 [3] was > 100 µM (inactive). The GI50 [4] was > 100 µM, the GI50 [5] was > 100 µM (inactive) and the GI50 [6] was > 100 µM (inactive). The GI50 [7] was > 100 µM (inactive), the GI50 [20] was > 100 µM (inactive) and the GI50 [9] was > 100 µM (inactive). The GI50 [11] was > 100 µM (inactive), the GI50 [12] was > 100 µM (inactive) and the GI50 [13] was > 100 µM (inactive). For the same compound, the GI50 [14] was > 100 µM (inactive), the GI50 [15] was > 100 µM (inactive) and the GI50 [16] was 34.4 µM (inactive). The GI50 [17] was > 100 µM (inactive) and the GI50 [18] was > 100 µM (inactive).
